Measurements reported in US20240270821A1, “GIP/GLP1/GCG TRI-RECEPTOR AGONISTS AND USES THEREOF” (priority 2023, published 2024).
Like-named read-outs stand apart in the source and are kept apart here. Starred links: 1 amine or outer side, 2 acyl side, 3 side chain; linkers in the order of their positions; H or OH if unused. Non-standard residues stand in square brackets, D forms with d. Residues, ends and D or L forms follow the SMILES beside them. Groups on a side chain read outwards from the residue. *: point of attachment. C20 diacid = O=C(O)CCCCCCCCCCCCCCCCCCC(=O)*; C18 diacid = O=C(O)CCCCCCCCCCCCCCCCC(=O)*; Phe(4-CN) = N#Cc1ccc(C[C@H](N)C(=O)O)cc1; αMePhe(2-F) = C[C@](N)(Cc1ccccc1F)C(=O)O; γGlu = O=C(O)[C@H](CCC(=O)[*:2])N[*:1]; αMe4Pal = C[C@](N)(Cc1ccncc1)C(=O)O; αMeY = C[C@](N)(Cc1ccc(O)cc1)C(=O)O; 4Pal = N[C@@H](Cc1ccncc1)C(=O)O; αMeL = CC(C)C[C@](C)(N)C(=O)O; αMeS = C[C@](N)(CO)C(=O)O; Orn = NCCC[C@H](N)C(=O)O; AEEA = NCCOCCOCC(=O)O; Aib = CC(C)(N)C(=O)O

How the values were obtained:
Format in all cases: cell-based
hGIPR [1] = biological target: T1, hGIPR (Homo sapiens, UniProt P48546); experiment: Functional cAMP activity in the presence of 1% HSA; conditions: read-out: cAMP Rel EC50, hGIPR
T1 sequence (P48546 22-466): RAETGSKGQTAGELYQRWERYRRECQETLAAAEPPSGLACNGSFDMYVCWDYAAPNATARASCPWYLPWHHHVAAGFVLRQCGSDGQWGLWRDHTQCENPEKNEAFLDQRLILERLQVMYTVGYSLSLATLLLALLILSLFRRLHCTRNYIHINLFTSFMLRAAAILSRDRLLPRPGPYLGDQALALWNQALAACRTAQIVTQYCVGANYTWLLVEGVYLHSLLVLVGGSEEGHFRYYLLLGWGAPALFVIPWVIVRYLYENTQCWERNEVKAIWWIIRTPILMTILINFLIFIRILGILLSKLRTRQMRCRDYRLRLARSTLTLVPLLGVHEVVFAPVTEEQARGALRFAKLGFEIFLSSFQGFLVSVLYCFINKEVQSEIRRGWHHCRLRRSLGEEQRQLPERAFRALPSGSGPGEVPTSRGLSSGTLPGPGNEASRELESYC

hGLP-1R [2] = biological target: T2, hGLP-1R (Homo sapiens, UniProt P43220); experiment: Functional cAMP activity in the presence of 1% HSA; conditions: read-out: cAMP Rel EC50, hGLP-1R
T2 sequence (P43220 24-463): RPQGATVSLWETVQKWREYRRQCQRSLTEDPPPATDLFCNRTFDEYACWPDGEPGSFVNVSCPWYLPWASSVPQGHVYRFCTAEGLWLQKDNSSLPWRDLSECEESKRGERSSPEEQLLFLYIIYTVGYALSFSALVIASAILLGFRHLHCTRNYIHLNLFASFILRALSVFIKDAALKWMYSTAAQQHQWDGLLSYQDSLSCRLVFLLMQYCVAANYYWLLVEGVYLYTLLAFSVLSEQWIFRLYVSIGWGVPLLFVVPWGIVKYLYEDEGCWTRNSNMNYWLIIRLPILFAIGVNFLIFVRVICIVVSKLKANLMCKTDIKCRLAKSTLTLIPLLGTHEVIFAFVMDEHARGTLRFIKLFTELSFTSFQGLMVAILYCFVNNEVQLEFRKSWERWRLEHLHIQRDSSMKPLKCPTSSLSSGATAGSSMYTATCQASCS

human GcgR = human GcgR (Homo sapiens, UniProt P47871); experiment: Functional cAMP activity in the presence of 1% HSA; conditions: read-out: cAMP Rel EC50, hGcgR
Chain of human GcgR (P47871 26-477): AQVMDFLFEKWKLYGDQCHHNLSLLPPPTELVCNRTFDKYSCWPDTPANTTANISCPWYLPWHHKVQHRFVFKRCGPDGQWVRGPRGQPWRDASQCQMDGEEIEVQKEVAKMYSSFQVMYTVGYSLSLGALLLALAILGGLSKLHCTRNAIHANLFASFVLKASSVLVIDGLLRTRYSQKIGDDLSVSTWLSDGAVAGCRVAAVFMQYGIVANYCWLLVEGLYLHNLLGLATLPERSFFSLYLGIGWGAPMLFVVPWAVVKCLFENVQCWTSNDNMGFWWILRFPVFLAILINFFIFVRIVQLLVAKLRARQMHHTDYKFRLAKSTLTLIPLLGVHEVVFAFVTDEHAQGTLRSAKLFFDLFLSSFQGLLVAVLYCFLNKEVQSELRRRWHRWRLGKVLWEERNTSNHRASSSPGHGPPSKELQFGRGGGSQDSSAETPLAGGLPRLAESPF

hGIPR [3] = biological target: T1, hGIPR; experiment: Functional cAMP activation in the presence of 0.1% casein (no HSA); conditions: read-out: Relative cAMP EC50, hGIPR;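 as to Relative cAMP EC50, hGIPR: intracellular cAMP rise after 30 min at 37 °C read by HTRF against a standard curve, scaled between buffer alone (0%) and top control ligand concentration (100%), four-parameter fit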;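 as to Relative cAMP EC50, hGLP-1R: intracellular cAMP rise after 30 min at 37 °C read by HTRF, normalized between buffer only (0%) and maximal control ligand (100%), four-parameter variable-slope fit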;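 as to Relative cAMP EC50, hGcgR: intracellular cAMP rise after 30 min at 37 °C, read by HTRF against a cAMP standard curve, scaled from buffer only (0%) to maximal control ligand response (100%)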
hGLP-1R [4] = biological target: T2, hGLP-1R; experiment: as above; conditions: read-out: Relative cAMP EC50, hGLP-1R
hGcgR = hGcgR (Homo sapiens, UniProt P47871); experiment: as above; conditions: read-out: Relative cAMP EC50, hGcgR;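 also: intracellular cAMP rise after 30 min at 37 °C, read by HTRF against a cAMP standard curve, scaled from buffer only (0%) to maximal control ligand response (100%)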
Chain of hGcgR (P47871 26-477): as above

[5] = in the presence of 0.1% casein (no HSA), geometric mean
[6] = 0.1% casein, no HSA, geometric mean

Molecule | EC50 (hGIPR [1]) [nM] | EC50 (hGLP-1R [2]) [nM] | EC50 (human GcgR) [nM] | EC50 (hGIPR [3]) [nM] | EC50 (hGLP-1R [4]) [nM] | EC50 (hGcgR) [nM] | EC50 (hGIPR [3]; [5]) [nM] | EC50 (hGLP-1R [4]; [5]) [nM] | EC50 (hGcgR; [5]) [nM] | EC50 (hGIPR [3]; [6]) [nM] | EC50 (hGLP-1R [4]; [6]) [nM] | EC50 (hGcgR; [6]) [nM]
CC[C@H](C)[C@H](NC(=O)[C@H](Cc1ccccc1)NC(=O)[C@H](C)NC(=O)C(C)(C)NC(=O)[C@H](CCC(N)=O)NC(=O)[C@H](C)NC(=O)[C@H](CCCCNC(=O)COCCOCCNC(=O)CC[C@H](NC(=O)CCCCCCCCCCCCCCCCC(=O)O)C(=O)O)NC(=O)[C@H](CCCCN)NC(=O)[C@H](CC(=O)O)NC(=O)[C@H](CC(C)C)NC(=O)[C@](C)(CC(C)C)NC(=O)[C@@H](NC(=O)[C@H](CO)NC(=O)[C@H](Cc1ccc(O)cc1)NC(=O)[C@H](CC(=O)O)NC(=O)[C@H](CO)NC(=O)[C@@H](NC(=O)[C@](C)(Cc1ccccc1F)NC(=O)[C@@H](NC(=O)CNC(=O)[C@H](CCC(N)=O)NC(=O)C(C)(C)NC(=O)[C@@H](N)Cc1ccc(O)cc1)[C@@H](C)O)[C@@H](C)O)[C@@H](C)CC)C(=O)N[C@@H](CCC(=O)O)C(=O)N[C@@H](Cc1ccc(O)cc1)C(=O)N[C@@H](CC(C)C)C(=O)N[C@@H](CCC(=O)O)C(=O)N[C@@H](CCC(=O)O)C(=O)NCC(=O)NCC(=O)N1CCC[C@H]1C(=O)N[C@@H](CO)C(=O)N[C@@H](CO)C(=O)NCC(=O)N[C@@H](C)C(=O)N1CCC[C@H]1C(=O)N1CCC[C@H]1C(=O)N1CCC[C@H]1C(=O)N[C@@H](CO)C(=O)N[C@@H](CCC(=O)O)C(N)=O [Example 424] (H-Y[Aib]QGT[αMePhe(2-F)]TSDYSI[αMeL]LDKK([AEEA-γGlu-C18 diacid])AQ[Aib]AFIEYLEEGGPSSGAPPPSE-NH2) | 3.21 | 29.5 | 443 | 0.0154 | 0.318 | 3.12 | – | – | – | – | – | –
H-Y[Aib]QGTFTSD[4Pal]S[Orn][αMeL]LD[Orn]K([γGlu-γGlu-C18 diacid])AQ[Aib]AFIE[αMeY]LLEGGPSSGAPPPSGSEE-NH2 [Example 1064] | 62.5 | 912 | 1940 | – | – | – | 0.556 | 7.89 | 13.7 | – | – | –
CC[C@H](C)[C@H](NC(=O)[C@H](Cc1ccccc1)NC(=O)[C@H](C)NC(=O)C(C)(C)NC(=O)[C@H](CCC(N)=O)NC(=O)[C@H](C)NC(=O)[C@H](CCCCNC(=O)COCCOCCNC(=O)CC[C@H](NC(=O)CCCCCCCCCCCCCCCCC(=O)O)C(=O)O)NC(=O)[C@H](CCCCN)NC(=O)[C@H](CC(=O)O)NC(=O)[C@H](CC(C)C)NC(=O)[C@](C)(CC(C)C)NC(=O)[C@H](CCCN)NC(=O)[C@H](CO)NC(=O)[C@H](Cc1ccccc1)NC(=O)[C@H](CC(=O)O)NC(=O)[C@H](CO)NC(=O)[C@@H](NC(=O)[C@H](Cc1ccccc1)NC(=O)[C@@H](NC(=O)CNC(=O)[C@H](CCC(N)=O)NC(=O)C(C)(C)NC(=O)[C@@H](N)Cc1ccc(O)cc1)[C@@H](C)O)[C@@H](C)O)C(=O)N[C@@H](CCC(=O)O)C(=O)N[C@@H](Cc1ccc(O)cc1)C(=O)N[C@@H](CC(C)C)C(=O)N[C@@H](CC(C)C)C(=O)N[C@@H](CCC(=O)O)C(=O)N[C@H](C)C(=O)NCC(=O)N1CCC[C@H]1C(=O)N[C@@H](CO)C(=O)N[C@@H](CO)C(=O)NCC(=O)N[C@@H](C)C(=O)N1CCC[C@H]1C(=O)N1CCC[C@H]1C(=O)N1CCC[C@H]1C(=O)N[C@@H](CO)C(=O)NCC(=O)N[C@@H](Cc1c[nH]cn1)C(N)=O [Example 259] | 18.4 | 220 | 317 | – | – | – | 0.114 | 1.47 | 2.55 | – | – | –
H-Y[Aib]QGTFTSDFSK[αMeL]LDKK([AEEA-γGlu-C18 diacid])AQ[Aib]AFIEYLLEGGESSGAPPPSGS-NH2 [Example 146] | 74.6 | 678 | 463 | – | – | – | 0.362 | 2.73 | 2.04 | – | – | –
CC[C@H](C)[C@H](NC(=O)[C@H](Cc1ccccc1)NC(=O)[C@H](CCCN)NC(=O)C(C)(C)NC(=O)[C@H](CCC(N)=O)NC(=O)[C@H](C)NC(=O)[C@H](CCCCNC(=O)CC[C@H](NC(=O)CC[C@H](NC(=O)CCCCCCCCCCCCCCCCC(=O)O)C(=O)O)C(=O)O)NC(=O)[C@H](CCCN)NC(=O)[C@H](CC(=O)O)NC(=O)[C@H](CC(C)C)NC(=O)[C@](C)(CC(C)C)NC(=O)[C@@H](NC(=O)[C@H](CO)NC(=O)[C@H](Cc1ccncc1)NC(=O)[C@H](CC(=O)O)NC(=O)[C@H](CO)NC(=O)[C@@H](NC(=O)[C@](C)(Cc1ccccc1F)NC(=O)[C@@H](NC(=O)CNC(=O)[C@H](CCC(N)=O)NC(=O)C(C)(C)NC(=O)[C@@H](N)Cc1ccc(O)cc1)[C@@H](C)O)[C@@H](C)O)[C@@H](C)CC)C(=O)N[C@H](CCC(=O)O)C(=O)N[C@@](C)(Cc1ccc(O)cc1)C(=O)N[C@@H](CC(C)C)C(=O)N[C@@H](CC(C)C)C(=O)N[C@@H](CCC(=O)O)C(=O)NCC(=O)NCC(=O)N1CCC[C@H]1C(=O)N[C@@H](CO)C(=O)N[C@@H](CO)C(=O)NC(C)(C)C(=O)N[C@@H](CCC(=O)O)C(=O)N1CCC[C@H]1C(=O)N1CCC[C@H]1C(=O)N1CCC[C@H]1C(=O)N[C@@H](CCC(=O)O)C(N)=O [Example 373] (H-Y[Aib]QGT[αMePhe(2-F)]TSD[4Pal]SI[αMeL]LD[Orn]K([γGlu-γGlu-C18 diacid])AQ[Aib][Orn]FI[dE][αMeY]LLEGGPSS[Aib]EPPPE-NH2) | 1.97 | 54.5 | 666 | – | – | – | 0.0183 | 0.392 | 4.48 | – | – | –
H-Y[Aib]QGTFTSDFSK[αMeL]LDKK([AEEA-γGlu-C18 diacid])AQ[Aib]AFIEYLIEGGESSGAPPPSGS-NH2 [Example 215] | 87.3 | 162 | 1510 | – | – | – | 0.418 | 0.803 | 9.77 | – | – | –
H-Y[Aib]QGT[αMePhe(2-F)]TSD[4Pal][αMeS]I[αMeL]LD[Orn]K([AEEA-γGlu-C18 diacid])AQ[αMe4Pal]EFI[dE][αMeY]LVEGGPSSGEPPPTGE-NH2 [Example 1153] | 1.39 | 52.7 | 215 | – | – | – | 0.0109 | 0.33 | 2.69 | – | – | –
H-Y[Aib]QGT[αMePhe(2-F)]TSD[4Pal][αMeS]I[αMeL]LD[Orn]K([AEEA-γGlu-C18 diacid])AQ[αMe4Pal]EFI[dE][αMeY]LIEGGPPS[Aib][Orn]PPPSGGGE-NH2 [Example 1199] | 0.733 | 63.9 | 352 | – | – | – | – | – | – | 0.0076 | 0.5 | 2.05
H-Y[Aib]QGTFTSD[4Pal]SQ[αMeL]LD[Orn]K([γGlu-γGlu-C18 diacid])AQ[αMe4Pal]QFIEYLLAGGPSSGAPPPSGSEE-NH2 [Example 1006] | 11.8 | 574 | 315 | – | – | – | 0.109 | 5.12 | 4.28 | – | – | –
H-Y[Aib]QGT[αMePhe(2-F)]TSD[4Pal][αMeS]I[αMeL]LD[Orn]K([AEEA-AEEA-γGlu-C18 diacid])AQ[αMe4Pal]EFI[dE][αMeY]LIEGGPSSGEPPPSGS-NH2 [Example 1208] | 0.786 | 44.8 | 451 | – | – | – | – | – | – | 0.00907 | 0.526 | 3.52
H-Y[Aib]QGTFTSD[4Pal]SQ[αMeL]LDKK([γGlu-γGlu-C18 diacid])AQ[αMe4Pal]AFIEYLIE[Aib]GPSSGAPPPSGSEEE-NH2 [Example 900] | 17 | 666 | 885 | – | – | – | 0.173 | 3.99 | 4.74 | – | – | –
H-Y[Aib]QGT[αMePhe(2-F)]TSD[Phe(4-CN)]SILLDKQAQK([AEEA-γGlu-C20 diacid])AFIQYLLEGGPSSGEPPPSEG-NH2 [Example 341] | 49.6 | 395 | 2930 | – | – | – | 0.213 | 1.62 | 10.7 | – | – | –
